Paper doi:10.1101/2024.08.19.608619, “Discovery of potent SARS-CoV-2 nsp3 macrodomain inhibitors uncovers lack of translation to cellular antiviral response” (bioRxiv, 2024)
Like-named read-outs stand apart in the source and are kept apart here.

Experiments:
Experiment in all cases: biochemical
Design in all cases: In vitro kinase panel profiling, per cent remaining kinase activity at 10 uM
CDK1/cyclinB(h) = CDK1/cyclinB(h) (Homo sapiens, UniProt P06493); conditions: atp_concentration=45, read-out: % of control remaining
Chain of CDK1/cyclinB(h) (P06493 whole entry): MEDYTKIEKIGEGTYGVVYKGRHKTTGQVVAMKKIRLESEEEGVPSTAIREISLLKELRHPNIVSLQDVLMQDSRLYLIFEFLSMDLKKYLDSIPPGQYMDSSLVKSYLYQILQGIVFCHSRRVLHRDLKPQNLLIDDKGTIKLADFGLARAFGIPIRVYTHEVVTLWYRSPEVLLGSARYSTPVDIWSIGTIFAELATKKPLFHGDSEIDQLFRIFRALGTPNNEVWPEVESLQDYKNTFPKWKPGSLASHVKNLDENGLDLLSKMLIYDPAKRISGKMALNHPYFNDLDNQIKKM
Chain of CDK1/cyclinB(h) (P14635 whole entry partner): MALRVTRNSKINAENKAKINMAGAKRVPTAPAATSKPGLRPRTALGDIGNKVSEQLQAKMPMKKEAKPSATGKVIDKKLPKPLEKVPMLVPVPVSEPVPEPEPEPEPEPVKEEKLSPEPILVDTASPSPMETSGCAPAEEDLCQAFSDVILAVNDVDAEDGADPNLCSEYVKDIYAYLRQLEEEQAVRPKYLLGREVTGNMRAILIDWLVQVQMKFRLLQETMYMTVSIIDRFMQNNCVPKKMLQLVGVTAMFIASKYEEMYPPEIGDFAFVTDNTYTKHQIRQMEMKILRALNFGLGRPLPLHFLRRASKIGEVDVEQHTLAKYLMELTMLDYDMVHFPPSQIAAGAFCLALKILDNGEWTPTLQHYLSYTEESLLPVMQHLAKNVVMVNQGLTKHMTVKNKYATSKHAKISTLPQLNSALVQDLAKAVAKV
Source text: (§1) We derisk potential for off-target activity by profiling the compound in a CEREP panel, a standard secondary pharmacology assessment, as well as a kinase panel to derisk a potential hinge-binding motif in our leads, and a PARP panel to derisk activity against human […]. Reassuringly, the compounds are selective, with the only off-targets being moderate human CHRM2 and KOR receptors activity associated with ASAP-0011198.

KDR(h) = KDR(h) (Homo sapiens, UniProt P35968); conditions: atp_concentration=90, read-out: % of control remaining
Source text: as §1

[1] = target: T1, PI3 Kinase (p110δ/p85α)(h) (Homo sapiens, UniProt O00329); conditions: atp_concentration=200, read-out: % of control remaining
T1 construct: gene PIK3CD
Source text: as §1

[2] = target: T2, PI3 Kinase (p110α/p85α)(h) (Homo sapiens, UniProt P42336); conditions: atp_concentration=200, read-out: % of control remaining
T2 construct: gene PIK3CA
Source text: as §1

IGF-1R(h) = target: T3, IGF-1R(h) (Homo sapiens, UniProt P08069); conditions: atp_concentration=200, read-out: % of control remaining
T3 construct: gene IGF1R
Source text: as §1

MST1(h) = target: T4, MST1(h) (Homo sapiens, UniProt Q13043); conditions: atp_concentration=90, read-out: % of control remaining
T4 construct: gene STK4
T4 sequence (Q13043 1-487): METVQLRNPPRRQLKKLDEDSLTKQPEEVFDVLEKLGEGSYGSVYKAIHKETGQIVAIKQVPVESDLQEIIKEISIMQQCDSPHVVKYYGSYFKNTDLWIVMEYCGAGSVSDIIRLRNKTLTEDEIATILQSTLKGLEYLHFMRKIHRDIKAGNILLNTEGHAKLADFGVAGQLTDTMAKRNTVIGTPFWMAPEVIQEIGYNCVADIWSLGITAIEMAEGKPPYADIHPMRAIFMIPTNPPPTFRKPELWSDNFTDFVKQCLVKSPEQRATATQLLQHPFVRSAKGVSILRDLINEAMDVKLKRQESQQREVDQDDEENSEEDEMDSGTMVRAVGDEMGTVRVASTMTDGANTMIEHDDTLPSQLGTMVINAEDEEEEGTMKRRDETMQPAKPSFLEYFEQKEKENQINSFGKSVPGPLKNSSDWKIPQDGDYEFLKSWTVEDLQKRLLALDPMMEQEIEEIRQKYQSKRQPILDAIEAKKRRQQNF
Source text: as §1

CDK2/cyclinA(h) = CDK2/cyclinA(h) (Homo sapiens, UniProt P24941); conditions: atp_concentration=45, read-out: % of control remaining
Source text: as §1

Fyn(h) = Fyn(h) (Homo sapiens, UniProt P06241); conditions: atp_concentration=70, read-out: % of control remaining
Chain of Fyn(h) (P06241 whole entry): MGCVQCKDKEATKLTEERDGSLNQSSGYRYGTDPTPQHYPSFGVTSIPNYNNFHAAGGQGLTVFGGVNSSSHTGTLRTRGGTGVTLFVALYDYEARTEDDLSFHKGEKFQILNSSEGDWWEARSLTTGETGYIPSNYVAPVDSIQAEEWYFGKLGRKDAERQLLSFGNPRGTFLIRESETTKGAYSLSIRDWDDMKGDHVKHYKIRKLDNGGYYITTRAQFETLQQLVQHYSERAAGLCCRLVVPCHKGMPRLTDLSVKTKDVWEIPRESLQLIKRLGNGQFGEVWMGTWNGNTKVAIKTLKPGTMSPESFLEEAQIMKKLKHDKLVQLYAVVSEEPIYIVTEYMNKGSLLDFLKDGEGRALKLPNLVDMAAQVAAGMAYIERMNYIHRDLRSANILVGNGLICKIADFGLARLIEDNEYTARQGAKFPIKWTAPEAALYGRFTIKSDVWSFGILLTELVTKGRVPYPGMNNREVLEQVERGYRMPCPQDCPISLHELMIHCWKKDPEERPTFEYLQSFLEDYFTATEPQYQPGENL
Source text: as §1

CaMKI(h) = target: T5, CaMKI(h) (Homo sapiens, UniProt Q14012); conditions: atp_concentration=200, read-out: % of control remaining
T5 construct: gene CAMK1
T5 sequence (Q14012 whole entry): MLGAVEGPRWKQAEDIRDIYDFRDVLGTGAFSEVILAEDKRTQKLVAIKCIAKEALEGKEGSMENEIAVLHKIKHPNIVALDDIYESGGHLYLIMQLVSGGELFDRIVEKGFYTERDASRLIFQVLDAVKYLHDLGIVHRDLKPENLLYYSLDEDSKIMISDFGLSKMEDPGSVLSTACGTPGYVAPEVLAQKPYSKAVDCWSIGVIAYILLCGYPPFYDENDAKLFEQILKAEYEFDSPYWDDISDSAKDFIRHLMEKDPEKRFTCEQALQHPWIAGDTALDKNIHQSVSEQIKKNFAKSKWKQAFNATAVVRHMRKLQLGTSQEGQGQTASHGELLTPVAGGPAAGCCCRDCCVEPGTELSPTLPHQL
Source text: as §1

p70S6K(h) = target: T6, p70S6K(h) (Homo sapiens, UniProt P23443); conditions: atp_concentration=15, read-out: % of control remaining
T6 construct: gene RPS6KB1
Source text: as §1

PI3 Kinase (p120γ)(h) = target: T7, PI3 Kinase (p120γ)(h) (Homo sapiens, UniProt P48736); conditions: atp_concentration=100, read-out: % of control remaining
T7 construct: gene PIK3CG
T7 sequence (P48736 whole entry): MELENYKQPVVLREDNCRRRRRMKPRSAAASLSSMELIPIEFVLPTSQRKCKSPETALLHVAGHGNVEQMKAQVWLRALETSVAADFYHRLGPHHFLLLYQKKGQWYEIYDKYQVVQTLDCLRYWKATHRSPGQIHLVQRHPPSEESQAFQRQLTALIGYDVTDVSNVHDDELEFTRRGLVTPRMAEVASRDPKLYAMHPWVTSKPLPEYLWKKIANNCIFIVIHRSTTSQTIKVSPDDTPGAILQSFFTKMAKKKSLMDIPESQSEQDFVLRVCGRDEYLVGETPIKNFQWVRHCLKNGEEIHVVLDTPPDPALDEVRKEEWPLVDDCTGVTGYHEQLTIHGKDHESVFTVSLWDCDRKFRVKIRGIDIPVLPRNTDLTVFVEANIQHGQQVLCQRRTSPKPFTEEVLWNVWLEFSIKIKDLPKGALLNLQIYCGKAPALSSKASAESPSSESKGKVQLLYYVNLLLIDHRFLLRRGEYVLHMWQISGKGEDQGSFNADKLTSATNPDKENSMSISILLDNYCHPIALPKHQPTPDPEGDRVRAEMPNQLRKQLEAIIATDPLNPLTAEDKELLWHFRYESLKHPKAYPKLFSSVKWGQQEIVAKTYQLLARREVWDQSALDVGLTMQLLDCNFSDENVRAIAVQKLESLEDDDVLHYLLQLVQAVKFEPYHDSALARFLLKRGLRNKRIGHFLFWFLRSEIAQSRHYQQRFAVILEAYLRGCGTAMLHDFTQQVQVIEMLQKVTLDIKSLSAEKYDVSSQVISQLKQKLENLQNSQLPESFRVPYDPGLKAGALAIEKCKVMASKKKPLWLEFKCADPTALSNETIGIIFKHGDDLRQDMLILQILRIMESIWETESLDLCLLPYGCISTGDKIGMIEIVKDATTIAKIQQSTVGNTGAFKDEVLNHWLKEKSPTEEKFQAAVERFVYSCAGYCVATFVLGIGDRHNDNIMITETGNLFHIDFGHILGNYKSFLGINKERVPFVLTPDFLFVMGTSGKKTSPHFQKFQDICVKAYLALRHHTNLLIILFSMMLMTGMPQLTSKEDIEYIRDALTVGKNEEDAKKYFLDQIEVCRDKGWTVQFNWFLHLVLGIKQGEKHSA
Source text: as §1

mTOR(h) = mTOR(h) (Homo sapiens, UniProt P42345); conditions: atp_concentration=70, read-out: % of control remaining
Source text: as §1

[3] = target: T8, PI3 Kinase (p110β/p85α)(h) (Homo sapiens, UniProt P42338); conditions: atp_concentration=200, read-out: % of control remaining
T8 construct: gene PIK3CB
T8 sequence (P42338 whole entry): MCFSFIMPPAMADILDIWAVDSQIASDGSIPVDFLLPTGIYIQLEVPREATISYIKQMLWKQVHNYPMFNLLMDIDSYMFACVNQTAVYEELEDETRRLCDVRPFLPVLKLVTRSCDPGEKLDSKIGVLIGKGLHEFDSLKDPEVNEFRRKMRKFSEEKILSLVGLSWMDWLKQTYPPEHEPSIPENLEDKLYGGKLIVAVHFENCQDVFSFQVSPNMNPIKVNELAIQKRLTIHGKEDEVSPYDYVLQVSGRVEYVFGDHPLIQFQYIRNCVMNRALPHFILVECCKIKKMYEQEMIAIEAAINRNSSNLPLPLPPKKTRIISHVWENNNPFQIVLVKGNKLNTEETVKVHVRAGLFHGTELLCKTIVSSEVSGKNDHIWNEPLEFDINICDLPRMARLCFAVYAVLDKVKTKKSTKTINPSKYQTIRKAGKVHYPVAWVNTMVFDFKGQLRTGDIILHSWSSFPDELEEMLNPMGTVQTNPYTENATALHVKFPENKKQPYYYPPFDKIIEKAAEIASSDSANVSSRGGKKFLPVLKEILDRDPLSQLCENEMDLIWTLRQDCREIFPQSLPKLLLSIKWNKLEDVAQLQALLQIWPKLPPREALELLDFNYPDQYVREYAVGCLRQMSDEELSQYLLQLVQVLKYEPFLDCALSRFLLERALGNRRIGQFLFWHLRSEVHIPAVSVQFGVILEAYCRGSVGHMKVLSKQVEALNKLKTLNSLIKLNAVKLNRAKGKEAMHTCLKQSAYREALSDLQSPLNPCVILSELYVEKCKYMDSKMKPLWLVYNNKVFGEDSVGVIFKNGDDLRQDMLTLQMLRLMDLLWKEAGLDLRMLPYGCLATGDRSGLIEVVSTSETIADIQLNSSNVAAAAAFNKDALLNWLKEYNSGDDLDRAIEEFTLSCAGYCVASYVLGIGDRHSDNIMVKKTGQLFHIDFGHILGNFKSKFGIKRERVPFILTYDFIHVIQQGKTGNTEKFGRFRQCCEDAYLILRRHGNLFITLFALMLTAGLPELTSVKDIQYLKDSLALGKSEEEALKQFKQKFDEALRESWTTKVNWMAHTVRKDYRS
T8 sequence (P27986 whole entry partner): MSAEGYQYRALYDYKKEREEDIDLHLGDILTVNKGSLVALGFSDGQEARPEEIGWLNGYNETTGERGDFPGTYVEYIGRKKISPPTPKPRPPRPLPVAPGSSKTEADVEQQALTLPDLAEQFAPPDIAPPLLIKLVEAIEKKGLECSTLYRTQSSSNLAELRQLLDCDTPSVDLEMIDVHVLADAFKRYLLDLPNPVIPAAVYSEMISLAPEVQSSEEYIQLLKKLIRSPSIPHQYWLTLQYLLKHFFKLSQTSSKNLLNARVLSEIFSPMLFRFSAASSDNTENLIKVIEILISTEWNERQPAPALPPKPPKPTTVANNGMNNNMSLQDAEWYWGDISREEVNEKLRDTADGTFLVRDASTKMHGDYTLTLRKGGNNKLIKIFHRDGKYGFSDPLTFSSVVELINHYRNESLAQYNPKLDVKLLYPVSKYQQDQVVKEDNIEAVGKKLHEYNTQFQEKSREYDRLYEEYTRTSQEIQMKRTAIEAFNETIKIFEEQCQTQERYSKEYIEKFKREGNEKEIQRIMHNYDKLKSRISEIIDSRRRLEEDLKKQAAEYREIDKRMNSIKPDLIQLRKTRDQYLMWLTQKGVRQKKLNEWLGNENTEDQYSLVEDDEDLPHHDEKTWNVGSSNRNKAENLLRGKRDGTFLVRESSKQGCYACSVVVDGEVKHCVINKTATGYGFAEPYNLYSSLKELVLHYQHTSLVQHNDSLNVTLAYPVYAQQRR
Source text: as §1

GSK3β(h) = target: T9, GSK3β(h) (Homo sapiens, UniProt P49841); conditions: atp_concentration=15, read-out: % of control remaining
T9 construct: gene GSK3B
Source text: as §1

MLK1(h) = target: T10, MLK1(h) (Homo sapiens, UniProt P80192); conditions: atp_concentration=45, read-out: % of control remaining
T10 construct: gene MAP3K9
Source text: as §1

EGFR(h) = EGFR(h) (Homo sapiens, UniProt P00533); conditions: atp_concentration=10, read-out: % of control remaining
Source text: as §1

SAPK2a(h) = target: T11, SAPK2a(h) (Homo sapiens, UniProt Q16539); conditions: atp_concentration=90, read-out: % of control remaining
T11 construct: gene MAPK14
Source text: as §1

PKBα(h) = target: T12, PKBα(h) (Homo sapiens, UniProt P31749); conditions: atp_concentration=155, read-out: % of control remaining
T12 construct: gene AKT1
T12 sequence (P31749 whole entry): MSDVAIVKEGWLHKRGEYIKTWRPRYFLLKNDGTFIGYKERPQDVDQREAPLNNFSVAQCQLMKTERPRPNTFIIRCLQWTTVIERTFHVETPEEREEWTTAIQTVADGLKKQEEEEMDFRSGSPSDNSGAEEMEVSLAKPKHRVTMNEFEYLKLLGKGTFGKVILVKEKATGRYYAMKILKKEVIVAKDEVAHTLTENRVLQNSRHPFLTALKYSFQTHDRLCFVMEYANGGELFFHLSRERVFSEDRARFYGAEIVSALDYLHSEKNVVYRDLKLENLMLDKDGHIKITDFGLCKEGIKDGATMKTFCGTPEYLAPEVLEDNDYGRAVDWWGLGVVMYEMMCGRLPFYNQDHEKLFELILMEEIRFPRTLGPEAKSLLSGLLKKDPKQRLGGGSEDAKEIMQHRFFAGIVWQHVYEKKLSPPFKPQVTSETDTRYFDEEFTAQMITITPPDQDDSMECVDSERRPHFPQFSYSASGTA
Source text: as §1

Question: Which results are given for `CC(C)[C@@H](Nc1ncnc2[nH]c(-c3cnn(C)c3C#N)cc12)c1ccc2c(n1)OCCO2` [ASAP-0008418]?
Answer: remaining activity at 10 µM (CDK1/cyclinB(h); batch_name=ASAP-0008418-001): 95%; remaining activity at 10 µM (KDR(h); batch_name=ASAP-0008418-001): 80%; remaining activity at 10 µM ([1]; batch_name=ASAP-0008418-001): 55%; remaining activity at 10 µM ([2]; batch_name=ASAP-0008418-001): 49%; remaining activity at 10 µM (IGF-1R(h); batch_name=ASAP-0008418-001): 108%; remaining activity at 10 µM (MST1(h); batch_name=ASAP-0008418-001): 103%; remaining activity at 10 µM (CDK2/cyclinA(h); batch_name=ASAP-0008418-001): 95%; remaining activity at 10 µM (Fyn(h); batch_name=ASAP-0008418-001): 56%; remaining activity at 10 µM (CaMKI(h); batch_name=ASAP-0008418-001): 104%; remaining activity at 10 µM (p70S6K(h); batch_name=ASAP-0008418-001): 82%; remaining activity at 10 µM (PI3 Kinase (p120γ)(h); batch_name=ASAP-0008418-001): 63%; remaining activity at 10 µM (mTOR(h); batch_name=ASAP-0008418-001): 83%; remaining activity at 10 µM ([3]; batch_name=ASAP-0008418-001): 92%; remaining activity at 10 µM (GSK3β(h); batch_name=ASAP-0008418-001): 85%; remaining activity at 10 µM (MLK1(h); batch_name=ASAP-0008418-001): 81%; remaining activity at 10 µM (EGFR(h); batch_name=ASAP-0008418-001): 81%; remaining activity at 10 µM (SAPK2a(h); batch_name=ASAP-0008418-001): 103%; remaining activity at 10 µM (PKBα(h); batch_name=ASAP-0008418-001): 95%

Question: Which results are given for `CC(C)[C@H](Nc1ncnc2[nH]ccc12)c1ccc2c(c1)S(=O)(=O)CCC2` [ASAP-0008674]?
Answer: remaining activity at 10 µM (CDK1/cyclinB(h); batch_name=ASAP-0008674-002): 93%; remaining activity at 10 µM (KDR(h); batch_name=ASAP-0008674-002): 86%; remaining activity at 10 µM ([1]; batch_name=ASAP-0008674-002): 99%; remaining activity at 10 µM ([2]; batch_name=ASAP-0008674-002): 94%; remaining activity at 10 µM (IGF-1R(h); batch_name=ASAP-0008674-002): 100%; remaining activity at 10 µM (MST1(h); batch_name=ASAP-0008674-002): 126%; remaining activity at 10 µM (CDK2/cyclinA(h); batch_name=ASAP-0008674-002): 102%; remaining activity at 10 µM (Fyn(h); batch_name=ASAP-0008674-002): 96%; remaining activity at 10 µM (CaMKI(h); batch_name=ASAP-0008674-002): 92%; remaining activity at 10 µM (p70S6K(h); batch_name=ASAP-0008674-002): 103%; remaining activity at 10 µM (PI3 Kinase (p120γ)(h); batch_name=ASAP-0008674-002): 98%; remaining activity at 10 µM (mTOR(h); batch_name=ASAP-0008674-002): 99%; remaining activity at 10 µM ([3]; batch_name=ASAP-0008674-002): 100%; remaining activity at 10 µM (GSK3β(h); batch_name=ASAP-0008674-002): 94%; remaining activity at 10 µM (MLK1(h); batch_name=ASAP-0008674-002): 84%; remaining activity at 10 µM (EGFR(h); batch_name=ASAP-0008674-002): 95%; remaining activity at 10 µM (SAPK2a(h); batch_name=ASAP-0008674-002): 107%; remaining activity at 10 µM (PKBα(h); batch_name=ASAP-0008674-002): 95%

Question: Which remaining activity at 10 µM (CDK1/cyclinB(h); batch_name=ASAP-0010715-002) does the source give for `CC(C)[C@H](Nc1ncnc2[nH]c(-c3cnn(C)c3C#N)cc12)c1ccc2c(n1)OCCO2` [ASAP-0010715] here?
Answer: 89%

Question: What about the remaining activity at 10 µM (KDR(h); batch_name=ASAP-0010715-002) of the same compound?
Answer: 76%

Question: What about the remaining activity at 10 µM ([1]; batch_name=ASAP-0010715-002) of the same compound?
Answer: 66%

Question: And the remaining activity at 10 µM ([2]; batch_name=ASAP-0010715-002)?
Answer: 70%

Question: What about the remaining activity at 10 µM (IGF-1R(h); batch_name=ASAP-0010715-002) of the same compound?
Answer: 85%

Question: And the remaining activity at 10 µM (MST1(h); batch_name=ASAP-0010715-002)?
Answer: 120%

Question: What about the remaining activity at 10 µM (CDK2/cyclinA(h); batch_name=ASAP-0010715-002) of the same compound?
Answer: 104%

Question: What about the remaining activity at 10 µM (Fyn(h); batch_name=ASAP-0010715-002) of the same compound?
Answer: 80%

Question: What about the remaining activity at 10 µM (CaMKI(h); batch_name=ASAP-0010715-002) of the same compound?
Answer: 104%

Question: What about the remaining activity at 10 µM (p70S6K(h); batch_name=ASAP-0010715-002) of the same compound?
Answer: 125%

Question: What about the remaining activity at 10 µM (PI3 Kinase (p120γ)(h); batch_name=ASAP-0010715-002) of the same compound?
Answer: 80%

Question: And the remaining activity at 10 µM (mTOR(h); batch_name=ASAP-0010715-002)?
Answer: 104%

Question: And the remaining activity at 10 µM ([3]; batch_name=ASAP-0010715-002)?
Answer: 86%

Question: What about the remaining activity at 10 µM (GSK3β(h); batch_name=ASAP-0010715-002) of the same compound?
Answer: 98%

Question: What about the remaining activity at 10 µM (MLK1(h); batch_name=ASAP-0010715-002) of the same compound?
Answer: 73%

Question: And the remaining activity at 10 µM (EGFR(h); batch_name=ASAP-0010715-002)?
Answer: 90%

Question: And the remaining activity at 10 µM (SAPK2a(h); batch_name=ASAP-0010715-002)?
Answer: 99%

Question: What about the remaining activity at 10 µM (PKBα(h); batch_name=ASAP-0010715-002) of the same compound?
Answer: 90%
